Assay results reported in paper doi:10.1101/2024.01.05.573888v1 (biorxiv, 2024).
Where two headings read alike, the source gives them in different places.

Key:
Experiment in all cases: ITC
Assay type in all cases: binding
PaKPR2 [1] = biological target: T1, PaKPR2 (Pseudomonas aeruginosa, UniProt A0A0H2Z9K5)
T1 sequence (A0A0H2Z9K5 1-315): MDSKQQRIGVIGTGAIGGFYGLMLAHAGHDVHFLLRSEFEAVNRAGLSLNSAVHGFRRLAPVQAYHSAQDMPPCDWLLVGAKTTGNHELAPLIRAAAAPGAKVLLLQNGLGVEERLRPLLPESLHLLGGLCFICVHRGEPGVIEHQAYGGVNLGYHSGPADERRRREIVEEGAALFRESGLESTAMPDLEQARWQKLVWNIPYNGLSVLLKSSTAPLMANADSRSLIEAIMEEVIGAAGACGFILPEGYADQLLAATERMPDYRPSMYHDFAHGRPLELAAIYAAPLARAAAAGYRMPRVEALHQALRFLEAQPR

PaKPR2 [2] = biological target: T1, PaKPR2; remark: listed apart in the source
PaKPR2 [3] = biological target: T1, PaKPR2; remark: listed apart in the source

Kd (PaKPR2 [2]) [µM] | SMILES | further results
3.53 | O=C(O)C(=O)c1ccccc1 [Phenyl glyoxylate] | 
98 | NC(=O)C1=CN([C@@H]2O[C@H](COP(=O)(O)OP(=O)(O)OC[C@H]3O[C@@H](n4cnc5c(N)ncnc54)[C@H](O)[C@@H]3O)[C@@H](O)[C@H]2O)C=CC1 [NADH] | 

Continued, molecule first:

SMILES | Kd (PaKPR2 [2]) [µM] | further results
NC(=O)C1=CN([C@@H]2O[C@H](COP(=O)(O)OP(=O)(O)OC[C@H]3O[C@@H](n4cnc5c(N)ncnc54)[C@H](OP(=O)(O)O)[C@@H]3O)[C@@H](O)[C@H]2O)C=CC1 [NADPH] |  | Kd (PaKPR2 [1]): 7.68 µM
CC[C@H](C)C(=O)C(=O)O [3methyl 2 ketopentanoate] |  | Kd (PaKPR2 [1]): 11.2 µM
O=C(O)C(=O)CCc1ccccc1 [2-oxo-4-phenylbutanoic acid] | 9.09 | 
O=C(O)C(=O)c1cccs1 | 1.34 | 
CC(C)CC(=O)C(=O)O [2-ketoisocaproate] |  | Kd (PaKPR2 [3]): 3.05 µM
O=C(O)C(=O)c1ccco1 [2-Furyl glyoxylate] | 0.392 | 
